Measurements: PubChem BioAssay (NCI)
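Results reflect a 48-hour exposure of cells in 96-well plates to compound at five concentrations. TGI denotes the concentration required for complete inhibition of growth.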

Columns and labels:
Assay in all cases: NCI-60 cell line screen, 48 h
HCT-15 colon = system: HCT-15 colon
SF-295 CNS = system: SF-295 CNS
HOP-62 NSCLC = system: HOP-62 NSCLC
SF-268 CNS = system: SF-268 CNS
ACHN renal = system: ACHN renal
A498 renal = system: A498 renal
PC-3 prostate = system: PC-3 prostate
NCI-H460 lung = system: NCI-H460 lung
COLO 205 colon = system: COLO 205 colon
U251 CNS = system: U251 CNS
SK-OV-3 ovarian = system: SK-OV-3 ovarian
UACC-257 melanoma = system: UACC-257 melanoma
MDA-N = system: MDA-N
LOX IMVI melanoma = system: LOX IMVI melanoma
HT29 colon = system: HT29 colon
MDA-MB-231 breast = system: MDA-MB-231 breast
SNB-75 CNS = system: SNB-75 CNS
UACC-62 melanoma = system: UACC-62 melanoma
T-47D breast = system: T-47D breast
SR leukemia = system: SR leukemia

Compound | TGI (HCT-15 colon) [µM] | TGI (SF-295 CNS) [µM] | TGI (HOP-62 NSCLC) [µM] | TGI (SF-268 CNS) [µM] | TGI (ACHN renal) [µM] | TGI (A498 renal) [µM] | TGI (PC-3 prostate) [µM] | TGI (NCI-H460 lung) [µM] | TGI (COLO 205 colon) [µM] | TGI (U251 CNS) [µM] | TGI (SK-OV-3 ovarian) [µM] | TGI (UACC-257 melanoma) [µM] | TGI (MDA-N) [µM] | TGI (LOX IMVI melanoma) [µM] | TGI (HT29 colon) [µM] | TGI (MDA-MB-231 breast) [µM] | TGI (SNB-75 CNS) [µM] | TGI (UACC-62 melanoma) [µM] | TGI (T-47D breast) [µM] | TGI (SR leukemia) [µM]
CC[N+](CC)(CCNCC(N)=O)CC(N)=O | > 10 | > 10 | > 10 | > 10 | > 10 | > 10 | > 10 | > 10 | > 10 | > 10 | > 10 | > 10 | > 10 | > 10 | > 10 | > 10 | > 10 | > 10 | – | –
CC(=O)Nc1cc(C(=O)Nc2cc(C(=O)N3CC(CCl)c4c3cc(N)c3ccccc43)nn2C)nn1C (stereo not drawn) | 3.22 | 4.41 | > 100 | 0.128 | 0.0892 | < 0.0197 | – | 0.13 | – | 0.856 | 5.96 | 2.09 | 0.389 | 1.07 | 1.21 | 0.76 | 0.0775 | 0.0631 | 0.0931 | –
Cc1nc2ccccc2c(=O)n1NC(=O)c1ccc(CS)cc1 | > 100 | > 100 | 42.4 | 52 | 27 | 40.8 | 19.2 | 60.4 | 62.9 | 23.3 | 78 | > 100 | – | 0.401 | > 100 | 84.6 | > 100 | – | 87.6 | 43.1
O=C1OC[C@@H]2Cc3cc4c(cc3[C@H](c3ccc5c(c3)OCO5)[C@@H]12)OCO4 | > 25 | > 25 | > 25 | – | > 25 | – | – | > 25 | > 25 | > 25 | – | > 25 | 21.6 | > 25 | > 25 | > 25 | – | – | – | > 25
COc1nc(C(=O)NNC(=O)c2nc(OC)c3ccccc3c2-c2ccccc2)c(-c2ccccc2)c2ccccc12 | > 100 | > 100 | > 100 | > 100 | > 100 | > 100 | > 100 | – | > 100 | > 100 | > 100 | > 100 | – | – | > 100 | > 100 | > 100 | > 100 | > 100 | > 100
CC(C)(C)OC(=O)NCC(O)CNC(=O)OC(C)(C)C | > 100 | > 100 | > 100 | > 100 | > 100 | > 100 | > 100 | > 100 | > 100 | > 100 | > 100 | > 100 | – | > 100 | – | > 100 | – | > 100 | > 100 | > 100
O/N=C1/COC(C(F)(F)F)(C(F)(F)F)C1 | > 100 | > 100 | > 100 | > 100 | > 100 | > 100 | > 100 | > 100 | > 100 | > 100 | > 100 | > 100 | – | > 100 | > 100 | > 100 | > 100 | > 100 | > 100 | > 100
NC(=O)C(N)Cc1ccc(O)cn1 (stereo not drawn) | > 100 | > 100 | > 100 | > 100 | > 100 | > 100 | > 100 | > 100 | > 100 | > 100 | – | > 100 | > 100 | > 100 | > 100 | > 100 | > 100 | – | – | > 100
Cc1cc(C)c(S(=O)(=O)N2CCCN(S(=O)(=O)c3c(C)cc(C)cc3C)OCCCON(S(=O)(=O)c3c(C)cc(C)cc3C)CCCN(S(=O)(=O)c3c(C)cc(C)cc3C)OCCCO2)c(C)c1 | > 100 | > 100 | > 100 | > 100 | > 100 | – | > 100 | > 100 | > 100 | > 100 | > 100 | > 100 | > 100 | > 100 | > 100 | > 100 | > 100 | > 100 | – | > 100
c1ccc2sc(C3(N4CCCC4)CCCCCC3)cc2c1 | 56.5 | 30.4 | 36.1 | 35.9 | 60.7 | 32.5 | – | 30.1 | 30.4 | 30.9 | 35 | 31 | 32.1 | 33.2 | 19.3 | 31 | 34.5 | 31.1 | – | 44.1
Cc1cc(N(CCC#N)CCC#N)ccc1/C(N=Nc1ccc([N+](=O)[O-])cc1)=N\NC(=O)c1cc(Cl)ccc1C(=O)c1ccccc1 | 37.2 | > 100 | > 100 | 42.3 | > 100 | – | 83.3 | 43.2 | 40.6 | > 100 | > 100 | > 100 | > 100 | – | 27.4 | 91 | > 100 | 36.9 | 50.3 | –
CNC(=S)N(C)C(=S)Nn1c(=O)c(C)nn(C)c1=S | > 100 | > 100 | > 100 | > 100 | > 100 | > 100 | – | > 100 | > 100 | > 100 | – | > 100 | – | > 100 | > 100 | – | > 100 | > 100 | – | > 100
N#C/C(C(=O)Nc1ccccc1)=C(/N)N1CCOCC1 | > 100 | > 100 | > 100 | – | > 100 | > 100 | > 100 | > 100 | > 100 | > 100 | > 100 | > 100 | > 100 | > 100 | – | – | > 100 | > 100 | > 100 | > 100
COc1cc(Nc2cnc3cc(F)c(F)cc3n2)cc(OC)c1OC | > 100 | > 100 | > 100 | > 100 | > 100 | > 100 | > 100 | > 100 | > 100 | > 100 | > 100 | > 100 | > 100 | > 100 | > 100 | – | > 100 | > 100 | > 100 | –
CSc1nc2c(nc(C)c(=O)n2C2OCC(OC(C)=O)C(OC(C)=O)C2OC(C)=O)c(=O)[nH]1 (stereo not drawn) | > 100 | > 100 | > 100 | > 100 | > 100 | > 100 | – | > 100 | > 100 | > 100 | > 100 | > 100 | – | > 100 | > 100 | – | > 100 | > 100 | – | > 100
O=[N+]([O-])c1ccccc1S(=O)(=O)c1cc(Cl)cc2c1NCCC2 | > 100 | > 100 | > 100 | > 100 | > 100 | > 100 | > 100 | > 100 | > 100 | – | > 100 | 96.7 | – | > 100 | > 100 | > 100 | > 100 | > 100 | – | > 100
COc1ccc(C2CC(=O)CC(c3ccc(OC)cc3)C23C(=O)NC(=O)NC3=O)cc1 (stereo not drawn) | > 100 | > 100 | 82.2 | > 100 | 78.1 | – | > 100 | > 100 | 89 | > 100 | – | > 100 | 86.4 | > 100 | > 100 | 85 | 67.1 | > 100 | – | > 100
CN(c1ccc(Cl)cc1)S(=O)(=O)c1cccc([N+](=O)[O-])c1 | > 100 | > 100 | > 100 | > 100 | > 100 | – | > 100 | > 100 | > 100 | > 100 | > 100 | > 100 | > 100 | > 100 | > 100 | > 100 | > 100 | > 100 | – | > 100
COc1ccc(C2S/C(=C\c3ccccc3O)C(=O)N2NC(=O)Cc2ccccc2)cc1 (stereo not drawn) | > 100 | > 100 | > 100 | > 100 | > 100 | > 100 | – | > 100 | > 100 | > 100 | > 100 | > 100 | – | > 100 | > 100 | – | > 100 | > 100 | – | > 100
COC(C)(C)C1=CCC(C)CC1 (stereo not drawn) | > 100 | > 100 | > 100 | > 100 | > 100 | > 100 | > 100 | > 100 | > 100 | > 100 | > 100 | > 100 | > 100 | – | > 100 | – | > 100 | > 100 | – | 78
CC1CC(N)=Nc2ccccc2N1 (stereo not drawn) | > 100 | > 100 | > 100 | > 100 | > 100 | – | > 100 | – | > 100 | > 100 | > 100 | > 100 | > 100 | > 100 | > 100 | > 100 | > 100 | > 100 | – | –
S=C(c1c[nH]c2ccccc12)N1CCOCC1 | > 100 | > 100 | > 100 | > 100 | > 100 | > 100 | > 100 | > 100 | > 100 | > 100 | > 100 | > 100 | > 100 | > 100 | > 100 | > 100 | 74 | > 100 | – | > 100
N#CSC#Cc1ccc(C#CSC#N)cc1 | 38 | 43.4 | 39.3 | 51.7 | 30.1 | 36.8 | 29.5 | 38.9 | 34.6 | 41.8 | 43 | 33.8 | 34.5 | 34.5 | 42.1 | 35.2 | – | 32.5 | – | > 100
NS(=O)(=O)c1nn2c(Br)c(-c3ccccc3)nc2s1 | 11.6 | 22.6 | 29.5 | 30.9 | 15.2 | 31 | 18.5 | 19.3 | 18.4 | 15.6 | 28.4 | 15.5 | – | 4.49 | 8.4 | 15.9 | 19.5 | 15.4 | 12.2 | > 33.8
C=C(C=O)[C@@H]1C2OC(=O)C(=C)[C@@H]2CC(O)[C@@]1(C)CC (stereo partly drawn) | 24.7 | 57.2 | > 100 | 71.4 | 27.1 | 39.5 | – | 51.4 | 11.7 | 32.4 | 99.9 | 26.9 | – | 34.7 | 21.5 | – | > 100 | 13.9 | – | 12.3
CC(=O)Nc1ccc(C(=O)NN2C(=O)C(Cl)C2c2ccccc2)cc1 (stereo not drawn) | – | > 100 | > 100 | > 100 | > 100 | > 100 | – | > 100 | > 100 | > 100 | > 100 | > 100 | – | > 100 | > 100 | – | > 100 | > 100 | – | –
COC(=O)C(C(=O)C(=O)Nc1cccc(OC)c1)c1cnc2ccccc2n1 (stereo not drawn) | > 100 | > 100 | > 100 | > 100 | > 100 | > 100 | – | > 100 | > 100 | > 100 | > 100 | > 100 | – | > 100 | > 100 | – | > 100 | > 100 | – | > 100
